Data taken from the METLIN SMRT retention time set (Domingo-Almenara et al. 2019).

Assay: gradient 5% acetonitrile 3 min, to 50% in 2 min, to 85% in 15 min, held 3 min, 100 µL/min
Conditions: column: Zorbax Extend-C18 2.1 x 50 mm; eluents: water / acetonitrile, 0.1% formic acid
How it was run: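 The system's dead and dwell volumes were 40 μL and 900 μL, with a Zorbax Extend-C18 column (2.1 × 50 mm, 1.8 μm) run at 100 μL/min in water and acetonitrile containing 0.1% formic acid each. Pure standards were analyzed in mixtures of ~100 molecules by HPLC–quadrupole time-of-flight mass spectrometry in positive and negative ionization mode. Retention time was assigned from computationally picked, manually inspected adduct peaks.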

Structure (SMILES)	RP-LC retention time [s]
Cc1cc(Nc2ccc(Cl)cc2C)n2ncnc2n1	806
CNC(=O)c1noc([C@@H]2CC(F)(F)CN2Cc2cccn2C)n1	590
Fc1ccccc1-c1nc(-c2ccnc(N3CCCC3)c2)no1	702
c1ccc(CSc2ccc(-c3ccc4c(c3)OCO4)nn2)nc1	617
O=C(Nc1ccc2c(c1)OCO2)C1CCN(c2cnc3nccnc3c2)CC1	690
Cc1nc(N2CCN(c3ccccn3)CC2)nc2c1C(=O)CC(c1ccccc1F)C2 (configuration not stated)	735
CC(Oc1ccccc1)C(=O)N1CCc2c(c(C(=O)NCc3ccc4c(c3)OCO4)nn2C)C1 (configuration not stated)	818
COCc1c(C(=O)O)nnn1-c1ccc(F)c(C)c1	723
CCCOC(=O)C1=C(C)NC2=C(C(=O)CCC2)C1c1ccc(OC)c(OC)c1OC (configuration not stated)	791
CC(C)c1c(C(=O)O)nnn1Cc1ccc(Cl)cc1	788
Cc1ccc(N2CC(c3nc(-c4ccc5oc(C)nc5c4)no3)CC2=O)cc1 (configuration not stated)	903
O=C(NCCS(=O)(=O)N1CCN(c2cccc(Cl)c2)CC1)c1cc2ccccc2o1	941
O=C(c1ccncc1)N1CCCC(c2nc(-c3ccc(F)cc3)n[nH]2)C1 (configuration not stated)	614
Cc1ccc2[nH]c(=O)c(CCC(=O)NCCN3CCc4ccccc4C3)cc2c1	634
N#CCn1cccc1-c1nc(-c2ccncc2)no1	685
O=C(CCn1c(N2CCCC2)nc2ccsc2c1=O)N1CCN(c2ccccc2F)CC1	849
O=C(Nc1cc(C(F)(F)F)cc(C(F)(F)F)c1)c1ccc(=O)[nH]n1	814

Structure (SMILES)	RP-LC retention time [s]
c1ccc(CCc2nc(-c3ccc4c(c3)nnn4CCN3CCOCC3)no2)cc1	687
Cc1cc(C)n2nc(SCC(=O)NCCC(C)C)nc2n1	690
CCCNC(=O)c1csc(C(=O)NCC)n1	670
Cc1nc(Cn2cccc2C(=O)NC2CCCCCC2)no1	879
CC(C)CNC(=O)c1nnn2c1COC(c1ccc(Br)cc1)C2 (configuration not stated)	973
CN(C)c1ccc(N2C=C(C(=O)N3CCCC3)S(=O)(=O)c3ccccc32)cc1	811
CC(=O)N1CCC2(CC1)CC(CC(=O)O)CCO2 (configuration not stated)	588
CNS(=O)(=O)c1cccnc1Nc1ccccc1	865
CC(=O)N1CCC([C@@H]2CN(C(=O)C3(C)CCCCC3)C[C@H]2CO)CC1	631
NC(=O)C1CCN(Cc2cc(-c3ccc(F)cc3)n[nH]2)CC1	571
Cc1ccc(-c2cc(C(=O)NC3CCCCC3)c(C)[nH]2)cc1	958
CCC(CO)NC(=O)C(=O)Nc1ccccc1SC (configuration not stated)	710
CCCN1N=C(C(=O)N2CCOCC2)S(=O)(=O)c2cc(Cl)ccc21	813
COc1cccc(CN2C[C@@H]3C(=O)N(Cc4ccc5c(c4)OCO5)C(=O)[C@@H]3C2)c1	724
O=C(c1ccc2nc(N3CCOCC3)sc2c1)N1CCN(c2ccccn2)CC1	563
CCN(CCCNC(=O)C1CCCN(c2ncnc3c2nc2n3CCCCC2)C1)Cc1ccccc1 (configuration not stated)	623

Further lines, results first:

RP-LC retention time [s]	Structure (SMILES)
807	COCCc1noc(C2Cc3ccccc3N2C(=O)NCc2ccco2)n1 (configuration not stated)
1000	CCn1cc(-c2nc(C(=O)Nc3ccc(OC)cc3)cs2)c2cccnc21
978	COc1cccc(-n2c(=O)c3sccc3n(Cc3nc(-c4cccc(C)c4)no3)c2=O)c1
829	Cc1[nH]c2ccccc2c1C(=O)CSc1nnc2sc3ccccc3n12
1270	O=C(Nc1cc(F)ccc1F)c1c(O)c2cccnc2n(-c2ccc(F)cc2)c1=O
652	Cc1ccc2oc(C(=O)NCc3c(F)cccc3F)cc2n1
936	CCOC(=O)c1noc2ncnc(NCc3ccc(C)cc3)c12
1080	O=C(Cn1cccc1-c1nc(-c2ccc(Cl)cc2)cs1)NCc1ccco1
785	COc1ccc(Cl)cc1NC(=O)NCC(c1cccnc1)c1cn(C)c2ccccc12 (configuration not stated)
806	CCc1ccc(NC(=O)C2CCN(S(=O)(=O)c3ccc4c(c3)S(=O)(=O)N=CN4)CC2)cc1
1270	CCOc1ccc(-c2noc(Cn3c(=O)n(CC(C)C)c(=O)c4ccccc43)n2)cc1OC
1020	Cc1ccc(-c2cc3c4nnc(SCC(=O)Nc5ccccc5Cl)n4ccn3n2)cc1C
695	COc1cccc(NC(=O)NCC2CC(=O)N(Cc3ccc(F)cc3)C2)c1OC (configuration not stated)
653	O=C(NCc1cccnc1)C1CCCN(c2ccc(Sc3ccc(Br)cc3)nn2)C1 (configuration not stated)
675	CCOC(=O)c1ccc(Nc2c(C(=O)N3CCC(C)CC3)cnc3nc(C)ccc23)cc1
747	O=C(CN1CCN(Cc2ccccc2Cl)CC1)Nc1nc(-c2ccccc2)cs1
1020	O=c1ccc(-c2ccc(Br)cc2)nn1Cc1nc(-c2cccs2)no1

RP-LC retention time [s]	Structure (SMILES)
770	O=C(Nc1ccc2c(c1)N(C(=O)c1ccco1)CC2)c1ccc2c(c1)OCO2
740	COc1ccc(OC)c(NC(=O)Cn2c(=O)nc(NC3CCCC3)c3ccccc32)c1
1010	COc1ccc(N2CCN(c3cc(C)nc4nc(-c5ccc(C)cc5)nn34)CC2)cc1
817	O=C(Cn1ccn2nc(-c3ccccc3)cc2c1=O)NCc1ccccc1Cl
700	Cc1cccn2cc(-c3cccc(NS(=O)(=O)c4ccc(Br)cc4)c3)nc12
648	O=C(NCCn1ncccc1=O)c1csc(-c2ccccc2)n1
678	CCn1c(C2CCN(C(=O)c3ccc(Br)o3)C2)nc2cccnc21 (configuration not stated)
1010	CCN1C(=O)c2cc(S(=O)(=O)Nc3ccc(F)cc3C)ccc2Oc2cccnc21
954	COc1cc(NC(=O)Cn2c(=O)n(C3CCCCC3)c3ncccc32)cc(OC)c1
688	CCn1cc(CN2CCC(C(=O)NC3CCCCC3)CC2)c2cc(OC)ccc21
1020	COc1ccccc1-c1nc(Cc2noc(-c3ccccc3F)n2)c(C)o1
1010	Cc1ccc(NC(=O)c2cccn2Cc2noc(C3CC3)n2)cc1F
788	Cc1ccc(-c2nc3c(C)cccn3c2Nc2ccccc2C)cc1
733	COc1cc(C(=O)NC(CC(C)C)C(=O)Nc2nc3ccccc3[nH]2)cc(OC)c1OC (configuration not stated)
882	COC(=O)c1sccc1S(=O)(=O)Nc1ccc(CC(=O)N2CCC(O)CC2)cc1
1130	COc1ccc(CN2C=C(C(=O)OCc3nc(-c4cccc(OC)c4)no3)C(C)=NS2(=O)=O)cc1
772	O=C(Nc1cccc(F)c1)c1csc(-c2ccc(N3CCCC3)nc2)n1
